Earlier results, collected in US10821075B1, “Compositions for topical application of a medicaments onto a mammalian body surface” (priority 2017, dated 2020).

Details: weak acid drug

In the case of `CC(C(=O)O)c1cccc(C(=O)c2ccccc2)c1` (stereo not shown) [ketoprofen], the pKa is given as 4.30.
